Assay results taken from PMC5648786, “Characterization of a dual function macrocyclase enables design and use of efficient macrocyclization substrates” (Nature Communications, 2017).
Where two headings read alike, the source gives them in different places. No end group written: not given here.

Legend:
[1] = biological target: T1, GmPOPB-S577A (inactive mutant) (Galerina marginata, UniProt H2E7Q8, S577A); experiment: Isothermal titration calorimetry, peptide binding to inactive mutant GmPOPB_S577A; details: for -TΔS / ΔG / ΔH / Kd / Binding detected by ITC: ITC; for -TΔS / ΔG / ΔH / Kd: 20 °C; for -TΔS / ΔG / ΔH: average ± SEM; for Kd: peptide titrated into GmPOPB_S577A, 50 mM Tris pH 8.0, 50 mM NaCl, 10 mM DTT, single-site model, n fixed at 1.0, average ± SEM of at least 2 measurements; for Binding detected by ITC: peptide concentrations up to 1 mM
T1 construct: His-tag (TEV-cleavable) (cleaved yes); made in house; host or cells: E. coli BL21(DE3)
T1 sequence (H2E7Q8 1-730 S577A): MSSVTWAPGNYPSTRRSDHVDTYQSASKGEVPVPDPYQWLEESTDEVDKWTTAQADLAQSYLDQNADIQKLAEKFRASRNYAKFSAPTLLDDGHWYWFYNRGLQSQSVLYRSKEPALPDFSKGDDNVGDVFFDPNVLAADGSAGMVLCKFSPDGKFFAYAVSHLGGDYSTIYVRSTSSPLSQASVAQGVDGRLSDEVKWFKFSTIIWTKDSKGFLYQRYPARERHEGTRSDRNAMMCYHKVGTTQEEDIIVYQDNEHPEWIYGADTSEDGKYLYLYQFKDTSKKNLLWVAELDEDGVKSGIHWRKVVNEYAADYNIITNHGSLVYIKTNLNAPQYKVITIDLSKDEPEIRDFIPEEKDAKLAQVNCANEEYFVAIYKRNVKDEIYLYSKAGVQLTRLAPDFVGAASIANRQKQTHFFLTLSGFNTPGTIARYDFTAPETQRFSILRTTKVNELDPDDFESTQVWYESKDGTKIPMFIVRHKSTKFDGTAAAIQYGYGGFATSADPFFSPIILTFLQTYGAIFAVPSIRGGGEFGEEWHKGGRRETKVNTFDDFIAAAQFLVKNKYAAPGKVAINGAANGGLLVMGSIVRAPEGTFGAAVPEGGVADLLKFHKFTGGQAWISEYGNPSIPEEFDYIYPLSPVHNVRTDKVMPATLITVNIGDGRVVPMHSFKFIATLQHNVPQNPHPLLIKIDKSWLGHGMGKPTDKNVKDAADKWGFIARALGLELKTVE

[2] = biological target: T1, GmPOPB-S577A (inactive mutant); details: ITC, GmPOPB_S577A, cited from earlier work
Text: Peptide Sequence Kd (μM) ΔG ΔH -TΔS N (kcal mol-1) (kcal mol-1) (kcal mol-1) measurements 9mer IW GIGCNPW ND ND ND ND 10mer IW GIGCNPW T 83 ± 17 -5.5 ± 0.1 -3.1 ± 0.5 -2.4 ± 0.3 2 11mer IW GIGCNPW TA 39 ± 18 -5.9 ± 0.3 -1.5 ± 0.7 […] 2 12mer IW GIGCNPW TAE 21 ± 5 -6.3 ± 0.1 -1.0 ± 0.3 -5.3 ± 0.4 2 13mer IW GIGCNPW TAEH 2.4 ± 0.1 -7.3 ± 0.1 -0.6 ± 0.2 -6.9 ± 0.2 2 14mer IW GIGCNPW TAEHV 9.5 ± 1.1 -6.7 ± 0.1 -0.9 ± 0.2 -5.8 ± 0.2 2 9mer- […] 121 ± 19 -5.3 ± 0.1 -6.4 ± 1.6 2.6 ± 1.5 3 recognition sequence 12mer- ...

[3] = average ± SEM, previously published ref 21

| Molecule | -TΔS ([1]; GmPOPB_S577A) [kcal/mol] | ΔG ([1]; GmPOPB_S577A) [kcal/mol] | ΔH ([1]; GmPOPB_S577A) [kcal/mol] | Kd [1] [µM] | also measured |
| --- | --- | --- | --- | --- | --- |
| CC[C@H](C)[C@H](NC(=O)CNC(=O)[C@H](Cc1c[nH]c2ccccc12)NC(=O)[C@@H](NC(=O)[C@@H]1CCCN1C(=O)[C@H](CC(C)C)NC(=O)[C@H](CCCNC(=N)N)NC(=O)[C@@H](NC(=O)[C@H](C)NC(=O)[C@H](CC(N)=O)NC(=O)[C@@H](NC(=O)[C@H](CC(=O)O)NC(=O)[C@H](Cc1ccccc1)NC(=O)[C@@H](N)CCSC)[C@@H](C)O)[C@@H](C)O)[C@@H](C)CC)C(=O)NCC(=O)N[C@@H](CS)C(=O)N[C@@H](CC(N)=O)C(=O)N1CCC[C@H]1C(=O)N[C@@H](Cc1c[nH]c2ccccc12)C(=O)N[C@H](C(=O)N[C@@H](C)C(=O)N[C@@H](CCC(=O)O)C(=O)N[C@@H](Cc1c[nH]cn1)C(=O)N[C@H](C(=O)N[C@@H](CC(=O)O)C(=O)N[C@@H](CCC(N)=O)C(=O)N[C@H](C(=O)N[C@@H](CC(C)C)C(=O)N[C@@H](C)C(=O)N[C@@H](CO)C(=O)NCC(=O)N[C@@H](CC(N)=O)C(=O)N[C@@H](CC(=O)O)C(=O)N[C@H](C(=O)N[C@@H](CS)C(=O)O)[C@@H](C)CC)[C@@H](C)O)C(C)C)[C@@H](C)O [35mer] | -1.2 ± 0.4 | -9.3 ± 0.1 |  |  |  |
| IWGIGCNPWT [10mer] | -2.4 ± 0.3 | -5.5 ± 0.1 | -3.1 ± 0.5 | 83 ± 17 |  |
| IWGIGCNPWTA [11mer] |  | -5.9 ± 0.3 | -1.5 ± 0.7 | 39 ± 18 |  |
| IWGIGCNPWTAE [12mer] | -5.3 ± 0.4 | -6.3 ± 0.1 | -1.0 ± 0.3 | 21 ± 5 |  |
| IWGIGCNPWTAEH [13mer] | -6.9 ± 0.2 | -7.3 ± 0.1 | -0.6 ± 0.2 | 2.4 ± 0.1 | Difference in affinity (reduction in binding) between the 35mer and the 13mer ([1]; ratio of ITC Kd values, GmPOPB_S577A): ~ 20 fold |
| MFDTNATRLP [leader peptide] |  |  |  |  | Binding detected by ITC ([1]; GmPOPB_S577A): no detectable binding; Binding detected by ITC ([1]; GmPOPB_S577A, listed as 10-residue leader): does not bind |
| TLASGNDIC [9mer-recognition sequence] | 2.6 ± 1.5 | -5.3 ± 0.1 | -6.4 ± 1.6 |  |  |
| VDQTLASGNDIC [12mer-recognition sequence] | 16.3 ± 3.0 | -7.1 ± 0.1 | -23.5 ± 3.1 |  |  |
| WTAEHVDQTLASGNDIC [17mer-recognition sequence] |  |  |  |  | Kd ([2]; 20 °C, 50 mM Tris pH 8.0, 50 mM NaCl, 10 mM DTT, average ± SEM, previously published ref 21): 0.43 ± 0.01 µM; -TΔS [2, 3]: 1.7 ± 0.4 kcal/mol; ΔG [2, 3]: -8.5 ± 0.1 kcal/mol; ΔH [2, 3]: -10.2 ± 0.4 kcal/mol; Difference in ΔG between the 17mer recognition sequence and the 25mer peptide [2]: 1.34 kcal/mol; Kd ([2]; previously published ref 21): 0.43 ± 0.01 µM |
